According to patent US12331095B2, “Inducible T cell receptors and uses thereof” (MEDIGENE IMMUNOTHERAPIES GMBH, priority 2018, dated 2025):

System: CD8+ PBL
Test: Flow cytometry (CD3, BV6-5) for induction of iTCR-NY-ESO on the surface of CD8+ PBL
Format: cell-based
Conditions: any of the concentrations tried (data not shown)
Procedure: FIG. 9: CD8^+ PBL transduced with iTCR-NY-ESO (MHC-I restricted TCR) or CD8^+ PBL expressing wt-NY-ESO were induced overnight with 1, 5, 10 or 20 μM Endoxifen or were left uninduced (no Endoxifen). 24 h after induction T2 cells loaded with relevant peptide SLLMWITQC (SEQ ID NO: 12) or irrelevant peptide VLDGLDVLL (SEQ ID NO: 11) were added to the cultures. IFN-γ secretion was detected by standard IFN-γ ELISA performed with the culture supernatants 24 h after stimulation with T2 targets. Flow cytometry was performed 48 h after induction and cells were assessed for BFP (transductants), CD3 and BV6-5. Exemplary plots shown are iTCR-NY-ESO transduced CD8^+ PBL without induction or with 20 μM Endoxifen. Plots were generated using the analysis tool FlowJo V10. Graph was plotted using graphPad Prism 7.
PBL from a healthy donor was enriched for CD8^+ cells using a commercial cell isolation kit (CD8+untouched) and transduced with the lentiviral vector carrying the iTCR-NY-ESO cassette or with the lentiviral vector carrying wt-NY-ESO as positive control. […] CD8^+ cells carrying either iTCR-NY-ESO were induced overnight with 20 μM Endoxifen or left untreated. Cells were then stained for CD3 (CD3-PECy7, SK7, 557851, BD) and the specific V-beta family BV6-5 (antibody: TRBV6-5-PE, IMMU 222, IM2292, Beckman Coulter).

Question: `CCC(=C(c1ccc(O)cc1)c1ccc(OCCN(C)C)cc1)c1ccccc1` [4-Hydroxytamoxifen, 4-(1-[4-(Dimethylaminoethoxy)phenyl]-2-phenyl-1-butenyl)phenol] was tested. Which “induction of iTCR-NY-ESO in PBL” value did it give?
Answer: Its value is “did not induce iTCR-NY-ESO in PBL in any of the concentrations tried”.
